Data: patent publication US8367873B2, “Phenyl-substituted bicyclooctane-1,3-dione derivatives” (Bayer Cropscience AG, priority 2008, dated 2013)
Values joined by “and” are separate entries in the source; they are usually repeats but may differ in a detail not shown here. Equal values may be shown once.

Columns and labels:
Alopecurus myosuroides [1] = experiment: Herbicidal pre-emergence action; format: in vivo; settings: pre-emergence method, 80 g/ha, greenhouse, visual assessment vs untreated controls
Procedure, shortened: (§1)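 Visual percent damage score (100% = dead plants, 0% = as untreated control) taken three weeks after pre-emergence treatment. Compounds were wettable powders sprayed onto covering soil over seeds in sandy loam, 600 l/ha water with 0.2% wetting agent, several application amounts; pots kept in greenhouse.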

Echinocloa crus-galli [2] = experiment: Herbicidal pre-emergence action; format: in vivo; settings: pre-emergence method, 80 g/ha, greenhouse, visual assessment vs untreated controls
Procedure, shortened: as §1

Lolium multiflorum [3] = experiment: Herbicidal pre-emergence action; format: in vivo; settings: pre-emergence method, 80 g/ha, greenhouse, visual assessment vs untreated controls
Procedure, shortened: as §1

Setaria viridis [4] = experiment: Herbicidal pre-emergence action; format: in vivo; settings: pre-emergence method, 80 g/ha, greenhouse, visual assessment vs untreated controls
Procedure, shortened: as §1

Alopecurus myosuroides [5] = experiment: Herbicidal post-emergence action; format: in vivo; settings: post-emergence method; for herbicidal effect against ALOMY (Alopecurus myosuroides): 80 g/ha
Procedure, shortened: (§2)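 Greenhouse-grown weeds were treated post-emergence at the one-leaf stage, two to three weeks after sowing in sandy loam. Compounds formulated as WP were sprayed at various rates in 600 l/ha water with 0.2% wetting agent. Damage was scored visually after about three weeks versus untreated controls (0% = like control, 100% = dead).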

Echinocloa crus-galli [6] = experiment: Herbicidal post-emergence action; format: in vivo; settings: post-emergence method; for herbicidal effect against ECHCG (Echinochloa crus-galli): 80 g/ha
Procedure, shortened: as §2

Lolium multiflorum [7] = experiment: Herbicidal post-emergence action; format: in vivo; settings: post-emergence method; for herbicidal effect against LOLMU (Lolium multiflorum): 80 g/ha
Procedure, shortened: as §2

Setaria viridis [8] = experiment: Herbicidal post-emergence action; format: in vivo; settings: post-emergence method, 80 g/ha
Procedure, shortened: as §2

cereals = experiment: Container trials with cereals in the greenhouse, use of safeners (Mefenpyr 1 day prior to herbicide application); format: in vivo
Procedure: Seeds of monocotylidonous and dicotylidonous weed and crop plants are placed in sandy loam in wood fibre pots, covered with soil and cultivated in a greenhouse under good growth conditions. Two to three weeks after sowing, the test plants are treated at the one-leaf stage. The test compounds, formulated as wettable powders (WP), are then with a water application rate of 600 l/ha (converted), with 0.2% of wetting agent added, sprayed onto the green parts of the plants in different amounts. After the test plants have been kept in the greenhouse under optimum growth conditions for about three weeks, the effect of the preparations is assessed visually in comparison to untreated controls (herbicidal effect in percent: 100% effect=the plants have died, 0% effect=like control plants).
If it is to be additionally tested as to whether safeners can improve the plant compatibility of test substances in the case of crop plants, the following options are used for applying the safeners: • Seeds of the crop plants are, before sowing, dressed with safener substance (the amount of safener stated in percent, based on the weight of the seed) • Before the application of the test substances, the crop plants are sprayed with the safener at a certain application rate per hectare (usually one day before the application of the test substances) • The safener is applied together with the test substance as a tank mix (the amount of safener stated in g/ha or as a ratio, based on the herbicide).
Container Trials with Cereals in the Greenhouse

maize = experiment: Crop compatibility small plot trial outdoors with maize, post-emergence, with and without safener; format: in vivo; settings: 60 g ai/ha (with safener 60 + 60)
Procedure: Method crop compatibility small plot trial outdoors: • Customary sowing using a single seed seeder • Plot size: 11.25 m^2/two repetitions
Treatment was carried out using a plot sprayer. The safener was applied together with the test substance as a tank mix using 300 l of water/ha (amounts of herbicide and safener are stated in g of ai/ha). Post-emergence application was carried out at the five-leaf stage of maize. Crop compatibility was assessed visually 14 and 27 days after the treatment (in percent compared to an untreated control), 100% damage=the plants have died, 0% damage=like control plants). • Outside trial with maize (Magixx Duo is cycloxidim-tolerant) • Post-Emergence Method

[9] = test system: monocotylidonous and dicotylidonous weed and crop plants; experiment: Herbicidal pre-emergence action (other test plants); format: in vivo; settings: pre-emergence method, 80 g/ha, greenhouse, visual assessment vs untreated controls
Procedure, shortened: as §1

[10] = test system: monocotylidonous and dicotylidonous weed and crop plants; experiment: Herbicidal post-emergence action (other test plants); format: in vivo; settings: post-emergence method; for herbicidal effect against AVEFA (Avena fatua): 80 g/ha
Procedure, shortened: as §2

[11] = Penetration of active compounds through enzymatically isolated cuticles of apple tree leaves; format: in vitro ADME, apple trees of the cultivar Golden Delicious; settings: 20° C., 60% rh
Procedure: Increase of penetration into the plant by ammonium or phosphonium salts and synergistic increase of penetration into the plant by ammonium/phosphonium salts in combination with penetrants.
In this test, the penetration of active compounds through enzymatically isolated cuticles of apple tree leaves was measured.
Use was made of leaves which, fully developed, were cut from apple trees of the cultivar Golden Delicious. The cuticles were isolated by • initially filling leaf discs punched out and stained with dye on the underside by vacuum infiltration with a pectinase solution (0.2 to 2% strength) buffered to a pH between 3 and 4, • […] allowing the leaf discs treated in this manner to stand until the original leaf structure has dissolved and the non-cellular cuticles have detached.
Only the cuticles, free from hairs and stoma, of the upper sides of the leaves were then used. They were washed repeatedly alternating with water and a buffer solution of pH 7. The clean cuticles obtained were then mounted on Teflon plates and smoothed and dried with a gentle stream of air.
In the next step, the cuticle membranes obtained in this manner were placed into stainless steel diffusion cells (=transport chambers) for membrane transport studies. To this end, the cuticles were placed with a pincet into the centre of the edges, coated with silicone fat, of the diffusion cells and closed with a ring, which had also been treated with fat. The arrangement was chosen such that the morphological outside of the cuticles was facing outwards, i.e. exposed to air, whereas the original inside was facing the interior of the diffusion cells.
The diffusion cells were filled with a 30% strength ethylene glycol/water solution. To determine the penetration, in each case 10 μl of the spray liquor of the composition below were applied to the outside of the cuticles. The spray liquor was prepared using local tap water of medium hardness.
After the spray liquors had been applied, the water was allowed to evaporate and the chambers were inverted and placed into thermostatic […] in which temperature and atmospheric humidity over the cuticles could be adjusted using a gentle stream of air onto the cuticles with the spray coating (20° C., 60% rh). At regular intervals, an autosampler took aliquots and the active compound content was determined by HPLC.
The stated numbers are average values of eight to ten measurements.

[12] = 10 days after application, 25 g of a.i./ha
[13] = 10 days after application, 50 g of a.i./ha
[14] = 10 days after application, 100 g of a.i./ha
[15] = 28 days after application, 50 g of a.i./ha
[16] = 28 days after application, 100 g of a.i./ha

Row | Compound | herbicidal effect ALOMY (Alopecurus myosuroides [1]) | herbicidal effect ECHCG (Echinocloa crus-galli [2]) | herbicidal effect LOLMU (Lolium multiflorum [3]) | herbicidal effect SETVI (Setaria viridis [4]) | herbicidal effect against ALOMY (Alopecurus myosuroides) (Alopecurus myosuroides [5]) | herbicidal effect against ECHCG (Echinochloa crus-galli) (Echinocloa crus-galli [6]) | herbicidal effect against LOLMU (Lolium multiflorum) (Lolium multiflorum [7]) | herbicidal effect against SETVI (Setaria viridis) (Setaria viridis [8]) | herbicidal effect AVEFA [9] | herbicidal effect against AVEFA (Avena fatua) [10] | also measured
1 | CCc1cc(C)cc(CC)c1C1=C(O)[C@H]2CC3(C[C@H]2C1=O)OCCO3 (relative stereo) [I-a-8] | 100% | 90% | 100% | 90% | 100% | 100% | 100% | 100% | 60% | 100% | Summer barley observed (%) (cereals; [12]): 10%; Summer barley observed (%) (cereals; [13]): 20%; Summer barley observed (%) (cereals; [14]): 20%; Summer wheat observed (%) (cereals; 10 days after application, 12.5 g of a.i./ha): 20%; Summer wheat observed (%) (cereals; [12]): 40% and 20%; Summer wheat observed (%) (cereals; [13]): 50% and 30%; Summer wheat observed (%) (cereals; [14]): 60% and 30%; % damage (maize; maize cultivar Magixx Duo (cycloxidim-tolerant), 14 days after application): 0%; % damage (maize; maize cultivar Magixx Duo (cycloxidim-tolerant), 27 days after application): 0%; % damage (maize; maize cultivar Oldham, 14 days after application): 94%; % damage (maize; maize cultivar Oldham, 27 days after application): 93%
2 | CCc1cc(C)cc(CC)c1C1=C(O)[C@H]2C[C@@]3(COC(C)(C)O3)C[C@H]2C1=O [I-a-1] | 90% | 50% | 100% | 60% | – | – | – | – | 80% | – | pest or weed control at 80 g/ha (Alopecurus myosuroides [5]; Alopecurus myosuroides, 504 h, read-out: herbicidal effect against ALOMY (Alopecurus myosuroides)): 100%; pest or weed control at 80 g/ha (Echinocloa crus-galli [6]; Echinochloa crus-galli, 504 h, read-out: herbicidal effect against ECHCG (Echinochloa crus-galli)): 100%; pest or weed control at 80 g/ha (Lolium multiflorum [7]; Lolium multiflorum, 504 h, read-out: herbicidal effect against LOLMU (Lolium multiflorum)): 100%; Penetration after 24 h ([11]; a.i. (0.2 g/l) + AS = ammonium sulphate (0.7 g/l)): 4%; Penetration after 24 h ([11]; a.i. (0.2 g/l) + Edenor ME SU 500 EW (2 g/l) + AS (0.7 g/l)): 13%; Penetration after 24 h ([11]; a.i. (0.2 g/l) + Edenor Me SU 500 EW (2 g/l)): 11.5%; Penetration after 24 h ([11]; a.i. (0.2 g/l) alone, average of eight to ten measurements): 2.5%; pest or weed control at 80 g/ha ([10]; 504 h, Avena fatua, read-out: herbicidal effect against AVEFA (Avena fatua)): 90%
3 | C=C1COC2(CC3C(=O)C(c4c(CC)cc(C)cc4CC)=C(OC(=O)C(C)C)C3C2)OC1 (centres unmarked) [I-b-13] | 100% | 100% | 100% | 100% | 100% | 100% | 100% | 100% | 80% | 100% | Summer barley observed (%) (cereals; [15]): 20%; Summer barley observed (%) (cereals; [16]): 50%; Summer wheat observed (%) (cereals; 28 days after application, 12.5 g of a.i./ha): 20%; Summer wheat observed (%) (cereals; 28 days after application, 25 g of a.i./ha): 40%; Summer wheat observed (%) (cereals; [15]): 80%; Summer wheat observed (%) (cereals; [16]): 85%
